This is an account of results in US5576429A, “5-substituted pyrimidine nucleosides and nucleotides” (Medivir AB, priority 1988, dated 1996).

Read-outs that look alike come from different tables or passages of the source.

Series [1] addresses T1, Human immuno deficiency virus reverse transcriptase (Human immunodeficiency virus type 1 group M subtype B, UniProt P04585).
T1 construct: Human immuno deficiency virus reverse transcriptase; made in house; host or cells: Escherichia coli
Briefly: Test III Inhibition of HIV reverse transcriptase by triphosphates. The series is classed as biochemical. The note with it: template (rA)n(dT)12-18, substrate dTTP; read-out: Concentration for 50% inhibition (IC50) of HIV RT. From the text: (§1) Test III Inhibition of reverse transcriptases and DNA polymerases by triphosphates of compounds of the invention
(§2) The 5'-triphosphates were synthesized essentially as described (Yoshikawa, M, Kato T, Takenishi T, Bull. Chem. Soc. (Japan), 42,3505-3508, 1969; Ludwig, J., Acta Biochim. Biophys. Acad. Sci. Hung. 16, 131-133, 1981; Ruth, J. L., Cheng, Y. C., Mol. Pharmacol. 20, 415 1981.) The HIV-RT was obtained as described by Hansen et al (Hansen J, Schulze T and Moelling K, J. Biol. Chem. 262, 12393-12396, 1987) from culture of Escherichia coli expressing the cloned HIV-pol gene. The HBV-DNAP was prepared from virus obtained from human serum, essentially as described by Nordenfelt et al (1987) [Nordenfelt E, Lofgren B, Chattopadhyaya J., Oberg B, J. Med. Virol. 22, 231-236, 1987]. The HSV-2 DNAP and cellular DNAPα preparation and reaction conditions have been described by Larsson et al [Larsson A, Sundqvist A, Parnerud A-M, 1986, Mol. Pharmacol. 29, 614-621]. […] The hepatitis B virus enzyme activity was determined with a virus preparation solubilized by non-idet P40, and endogenous nucleic acid as template, as described by Nordenfelt et al (vide supra)

The target of series [2] is T2, Hepatit B virus DNA polymerase (Hepatitis B virus genotype D subtype ayw, UniProt P03156).
T2 construct: The HBV-DNAP was prepared from virus obtained from human serum; from tissue; host or cells: hepatitis B virus particles from human serum, solubilized with Nonidet P40
T2 sequence (P03156 whole entry): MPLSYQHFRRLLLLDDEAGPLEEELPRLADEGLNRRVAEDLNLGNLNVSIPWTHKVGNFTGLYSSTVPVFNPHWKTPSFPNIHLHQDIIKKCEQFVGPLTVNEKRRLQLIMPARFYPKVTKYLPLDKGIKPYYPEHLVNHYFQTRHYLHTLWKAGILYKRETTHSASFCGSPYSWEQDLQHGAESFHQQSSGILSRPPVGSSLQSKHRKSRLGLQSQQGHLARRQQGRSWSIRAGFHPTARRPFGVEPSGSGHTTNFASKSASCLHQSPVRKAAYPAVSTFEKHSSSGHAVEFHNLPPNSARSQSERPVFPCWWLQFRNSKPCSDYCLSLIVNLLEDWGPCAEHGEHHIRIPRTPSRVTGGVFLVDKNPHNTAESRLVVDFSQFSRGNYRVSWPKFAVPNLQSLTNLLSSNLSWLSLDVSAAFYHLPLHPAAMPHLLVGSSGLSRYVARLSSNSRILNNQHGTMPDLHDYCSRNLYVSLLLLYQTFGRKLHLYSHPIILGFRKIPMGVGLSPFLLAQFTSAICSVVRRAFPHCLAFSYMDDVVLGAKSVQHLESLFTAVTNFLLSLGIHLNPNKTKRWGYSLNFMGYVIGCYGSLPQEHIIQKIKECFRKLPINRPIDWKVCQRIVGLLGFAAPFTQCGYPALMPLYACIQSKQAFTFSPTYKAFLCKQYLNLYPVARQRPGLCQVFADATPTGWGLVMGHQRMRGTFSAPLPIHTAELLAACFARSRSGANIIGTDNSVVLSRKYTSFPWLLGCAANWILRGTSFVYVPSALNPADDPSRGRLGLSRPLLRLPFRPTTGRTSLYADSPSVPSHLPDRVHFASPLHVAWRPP
Briefly: Test III Inhibition of HBV DNA polymerase by triphosphates. The series is classed as biochemical. The settings on record: virus preparation from human serum, endogenous nucleic acid as template; read-out: Concentration for 50% inhibition (IC50) of HBV DNAP.
Source text: as §1, §2

For series [3], the target named is Herpes simplex virus type 2 DNA polymerase (Human herpesvirus 2, UniProt P89453). Nature of the series: Test III Inhibition of HSV-2 DNA polymerase by triphosphates. In kind it is biochemical. The note with it: read-out: Concentration for 50% inhibition (IC50) of HSV-2 DNAP.
Chain of Herpes simplex virus type 2 DNA polymerase (P89453 whole entry): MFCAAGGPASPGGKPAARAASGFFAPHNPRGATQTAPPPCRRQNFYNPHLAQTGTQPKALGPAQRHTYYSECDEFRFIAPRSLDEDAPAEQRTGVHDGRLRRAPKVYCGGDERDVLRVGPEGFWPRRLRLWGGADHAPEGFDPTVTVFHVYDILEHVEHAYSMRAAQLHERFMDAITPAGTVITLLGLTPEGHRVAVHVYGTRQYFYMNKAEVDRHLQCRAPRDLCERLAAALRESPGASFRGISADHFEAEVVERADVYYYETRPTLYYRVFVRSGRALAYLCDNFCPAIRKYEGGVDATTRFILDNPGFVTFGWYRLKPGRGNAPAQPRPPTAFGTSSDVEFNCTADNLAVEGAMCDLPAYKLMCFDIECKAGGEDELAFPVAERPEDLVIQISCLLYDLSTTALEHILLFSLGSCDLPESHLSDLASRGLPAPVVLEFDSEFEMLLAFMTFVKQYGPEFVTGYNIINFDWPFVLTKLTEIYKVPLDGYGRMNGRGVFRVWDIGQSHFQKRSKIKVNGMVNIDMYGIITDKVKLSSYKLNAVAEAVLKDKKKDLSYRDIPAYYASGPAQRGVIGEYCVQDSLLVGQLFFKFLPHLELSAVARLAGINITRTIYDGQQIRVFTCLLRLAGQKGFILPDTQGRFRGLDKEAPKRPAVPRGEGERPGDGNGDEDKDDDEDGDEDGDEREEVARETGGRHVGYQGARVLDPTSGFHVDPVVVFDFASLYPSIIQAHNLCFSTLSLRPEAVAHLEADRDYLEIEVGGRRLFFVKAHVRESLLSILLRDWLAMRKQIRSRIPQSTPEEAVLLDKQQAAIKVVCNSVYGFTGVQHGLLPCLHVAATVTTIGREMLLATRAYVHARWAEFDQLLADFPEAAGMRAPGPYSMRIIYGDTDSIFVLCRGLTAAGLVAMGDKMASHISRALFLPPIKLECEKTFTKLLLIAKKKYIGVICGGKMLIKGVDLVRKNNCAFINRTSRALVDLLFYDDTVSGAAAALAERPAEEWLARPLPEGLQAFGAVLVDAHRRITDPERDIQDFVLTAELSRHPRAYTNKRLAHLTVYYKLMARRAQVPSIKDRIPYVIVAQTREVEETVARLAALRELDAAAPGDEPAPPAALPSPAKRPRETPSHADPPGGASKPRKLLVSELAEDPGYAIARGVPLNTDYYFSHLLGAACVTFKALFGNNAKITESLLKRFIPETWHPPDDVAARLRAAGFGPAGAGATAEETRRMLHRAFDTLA
Source text: as §1, §2

The next series addresses T3, DNA polymerase alpha (Homo sapiens, UniProt P09884).
T3 sequence (P09884 1-1462): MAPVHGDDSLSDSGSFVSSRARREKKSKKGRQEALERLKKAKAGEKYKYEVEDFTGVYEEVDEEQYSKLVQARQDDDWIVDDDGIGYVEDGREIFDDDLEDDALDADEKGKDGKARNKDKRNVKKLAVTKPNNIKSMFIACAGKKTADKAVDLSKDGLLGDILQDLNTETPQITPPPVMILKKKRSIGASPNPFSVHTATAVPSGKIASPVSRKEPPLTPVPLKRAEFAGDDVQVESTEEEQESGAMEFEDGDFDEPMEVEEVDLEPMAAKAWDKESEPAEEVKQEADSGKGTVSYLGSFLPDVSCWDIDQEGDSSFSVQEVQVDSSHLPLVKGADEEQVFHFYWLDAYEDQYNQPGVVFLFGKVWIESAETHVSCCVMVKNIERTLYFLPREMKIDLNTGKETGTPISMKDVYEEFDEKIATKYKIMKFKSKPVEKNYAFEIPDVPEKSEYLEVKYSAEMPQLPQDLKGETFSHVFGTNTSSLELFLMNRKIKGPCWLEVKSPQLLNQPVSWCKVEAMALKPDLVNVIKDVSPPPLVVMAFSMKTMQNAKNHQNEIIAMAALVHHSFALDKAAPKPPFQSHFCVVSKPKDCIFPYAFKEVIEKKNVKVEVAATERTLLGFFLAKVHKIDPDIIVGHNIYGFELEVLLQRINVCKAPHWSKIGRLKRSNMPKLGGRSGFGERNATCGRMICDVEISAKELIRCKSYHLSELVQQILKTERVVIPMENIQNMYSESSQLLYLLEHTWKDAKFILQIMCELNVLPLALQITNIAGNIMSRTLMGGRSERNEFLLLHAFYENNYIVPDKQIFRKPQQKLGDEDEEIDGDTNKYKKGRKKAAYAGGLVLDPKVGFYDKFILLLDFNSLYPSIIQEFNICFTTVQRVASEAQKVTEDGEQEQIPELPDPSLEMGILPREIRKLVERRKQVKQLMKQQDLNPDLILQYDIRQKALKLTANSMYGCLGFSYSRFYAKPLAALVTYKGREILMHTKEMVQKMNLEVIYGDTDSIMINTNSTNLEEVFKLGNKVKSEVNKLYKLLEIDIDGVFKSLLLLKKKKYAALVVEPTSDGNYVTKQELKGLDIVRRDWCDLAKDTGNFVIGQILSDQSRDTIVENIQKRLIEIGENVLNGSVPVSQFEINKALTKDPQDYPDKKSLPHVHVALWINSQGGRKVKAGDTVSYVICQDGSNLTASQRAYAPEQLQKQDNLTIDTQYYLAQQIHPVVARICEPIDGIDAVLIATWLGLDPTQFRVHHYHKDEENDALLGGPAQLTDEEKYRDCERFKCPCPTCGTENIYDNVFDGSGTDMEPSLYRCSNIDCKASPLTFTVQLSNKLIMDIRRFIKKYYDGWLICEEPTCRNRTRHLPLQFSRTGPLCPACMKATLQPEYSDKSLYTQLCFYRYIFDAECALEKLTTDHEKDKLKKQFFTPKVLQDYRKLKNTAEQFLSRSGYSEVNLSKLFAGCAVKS
Briefly: Test III Inhibition of cellular DNA polymerase alpha by triphosphates. The note with it: cellular DNAPα; read-out: Concentration for 50% inhibition (IC50) of DNAPα. The series is classed as biochemical.
Source text: as §1, §2

The next series concerns HIV (HTLV-IIIB). Nature of the series: Test I Effect of compounds on HIV in H9 cells (frequency of HIV antigen containing cells). The series is classed as cell-based. On the procedure:
Test I Effect of compounds of the formula I on HIV in H9 cells
Materials and methods: HIV infection of H9 cells
H9 cells, 10^5 cells per well on a 24 well plate, suspended in 2 ml RPMI-medium containing 10% fetal calf serum, 100 μg/ml pencillin, 10 μg/ml streptomycin sulfate and 2 μg/ml polybrene are exposed to HIV (HTLV-IIIB) and different concentrations of the test compounds. The plates are incubated at 37° C. in 5% CO2 for 6-7 days. The contents in each well is then homogenized with a pipette and transferred to a centrifuge tube. After centrifugation for 10 min at 1500 rpm the supernatant is removed and the cell pellet is analyzed by fixing in methanol on glass plates. Human HIV positive serum diluted 1:80 or 1:160 is added and incubated for 30 min at 37° C. The plate is then washed with phosphate-buffered saline (PBS) containing Ca^2+ and Mg^2 +. Sheep antihuman conjugate (FITC) is added and after a new incubation the plate is again washed with PBS. Contrast staining is done with Evans blue and after drying the frequency of HIV antigen containing cells is determined in a microscope.

Series [4] in a line: Test II Cellular toxicity on H9 cells (cell number after 48 h). In kind it is cell-based. The settings on record: human, read-out: % inhibition of cell multiplication, H9.
Series [5] can be described thus: Test II Cellular toxicity on F5000 cells (cell number after 48 h). In kind it is cell-based, human. The settings on record: human, read-out: % inhibition of cell multiplication, F 5000. On the procedure:
(§3) Test II Cellular toxicity
(§4) F5000 cells, which are human embryo cells, 1×10^5 cells per plate, are incubated in Eagle's minimal essential medium, supplemented with Earle's salts, non-essential amino acids, 10% fetal calf serum, 10 mM hepes, 70 mg/l penicillin and 100 mg/l streptomycin, in absence or presence of test compounds. The number of cells per plate is determined after 48 h.

Another series deals with H9 cells. Nature of the series: Test II Cellular toxicity on H9 cells (cell number after 48 h). The series is classed as cell-based. The note with it: 200 μM.
The test system of another series is F5000 cells. Nature of the series: Test II Cellular toxicity on F5000 cells (cell number after 48 h). The series is classed as cell-based, human. The settings on record: 100 μM. On the procedure: as §3, §4
Setting [6] is: Human immunodeficiency virus 1, H9 cells, HIV (HTLV-IIIB), 6-7 days, read-out: Concentration for 50% inhibition (IC50) of human immuno deficiency virus multiplication in cell culture.
Setting [7] is: Human immunodeficiency virus 1, IIIB, H9, read-out: Concentration for 50% inhibition (IC50) of human immuno deficiency virus multiplication in cell culture.

Turning to `O=c1[nH]c(=O)n([C@@H]2C[C@H](O)[C@@H](COP(=O)(O)OP(=O)(O)OP(=O)(O)O)O2)cc1-c1cccs1` [1-(2-Deoxy-alpha-D-ribofuranasyl)-5-(2-thienyl)uracil-5'-triphosphate], the IC50 in [1] came to 2000 nM; in [2], 18 µM; in series [3] it was 11 µM; on DNA polymerase alpha, 80 µM.
Consider `O=c1[nH]c(=O)n([C@H]2C[C@H](O)[C@@H](COP(=O)(O)OP(=O)(O)OP(=O)(O)O)O2)cc1-c1cccs1` [1-(2-Deoxy-beta-D-ribofuranosyl)-5-(2-thienyl)uracil-5'-triphosphate], for which the IC50 turned out to be 15 nM in [1], 0.11 µM in series [2], 0.06 µM in [3] and 1.6 µM at DNA polymerase alpha.
What is called inhibition is how much of the control response was suppressed. As for `O=c1[nH]c(=O)n([C@@H]2C[C@H](O)[C@@H](CO)O2)cc1-c1cccs1` [VSA 134, 1-(2-Deoxy-alpha-D-ribofuranosyl)-5-(2-thienyl)uracil], the IC50 in the series with HIV (HTLV-IIIB) (setting [6]) is 0.05 to 10 µM. The inhibition at 48 h, 250 µM in [4] (250 μM) was 35%. Besides, the inhibition at 48 h, 100 µM in series [5] (100 μM) was in the range of 0 to 35%.
`O=c1[nH]c(=O)n([C@@H]2C[C@H](O)[C@@H](CO)O2)cc1-c1ccc[se]1` [VSA 188]: the IC50 with HIV (HTLV-IIIB) (setting [7]) was 2 to 20 µM. In addition, the results for the inhibition at 48 h, 200 µM in series [4] and in [5] were 40% and 15%, respectively.
On to `O=c1[nH]c(=O)n([C@H]2C[C@H](O)[C@@H](CO)O2)cc1-c1cccs1` [VSA 189], for which the “% inhibition of cell multiplication, H9” value in the series with H9 cells stood at 35%. Also, in the series with F5000 cells, the “% inhibition of cell multiplication, F 5000” value was 10%.
For `O=c1[nH]c(=O)n([C@H]2C[C@H](O)[C@@H](CO)O2)cc1-c1cc[se]c1` [VSA 992], the inhibition at 48 h, 200 µM in series [4] turned out to be 40%; in [5], 0%.
For the compound `O=c1[nH]c(=O)n([C@@H]2C[C@H](O)[C@@H](CO)O2)cc1-c1cc[se]c1` [VSA 996], the IC50 in the series on HIV (HTLV-IIIB) (setting [7]) fell in the range of 3 to 100 µM. For the same compound, the figures for the inhibition at 48 h, 200 µM in series [4] and in series [5] were 65% and 30%, respectively.
Take `O=c1[nH]c(=O)n([C@@H]2C[C@H](O)[C@@H](CO)O2)cc1-c1ccco1` [VSB 007, 1-(2-Deoxy-alpha-D-ribofuranosyl)-5-(2-furyl)uracil]: in the series with HIV (HTLV-IIIB) (setting [6]), the IC50 was less than 10 µM.
Turning to `O=c1[nH]c(=O)n([C@H]2C[C@H](O)[C@@H](CO)O2)cc1-c1ccco1` [VSB 008, 1-(2-Deoxy-beta-D-ribofuranosyl)-5-(2-furyl)uracil], in series [5], the inhibition at 48 h, 200 µM amounted to 0%.
